Ki and EC90 data for 15 compounds are collected here from patent US20060100245A1, “Substituted biphenyl-4-carboxylic acid arylamide analogues” (Neurogen Corporation, priority 2002, published 2006).

Each structure is given as a SMILES string.

T1 sequence (Q8NER1 whole entry): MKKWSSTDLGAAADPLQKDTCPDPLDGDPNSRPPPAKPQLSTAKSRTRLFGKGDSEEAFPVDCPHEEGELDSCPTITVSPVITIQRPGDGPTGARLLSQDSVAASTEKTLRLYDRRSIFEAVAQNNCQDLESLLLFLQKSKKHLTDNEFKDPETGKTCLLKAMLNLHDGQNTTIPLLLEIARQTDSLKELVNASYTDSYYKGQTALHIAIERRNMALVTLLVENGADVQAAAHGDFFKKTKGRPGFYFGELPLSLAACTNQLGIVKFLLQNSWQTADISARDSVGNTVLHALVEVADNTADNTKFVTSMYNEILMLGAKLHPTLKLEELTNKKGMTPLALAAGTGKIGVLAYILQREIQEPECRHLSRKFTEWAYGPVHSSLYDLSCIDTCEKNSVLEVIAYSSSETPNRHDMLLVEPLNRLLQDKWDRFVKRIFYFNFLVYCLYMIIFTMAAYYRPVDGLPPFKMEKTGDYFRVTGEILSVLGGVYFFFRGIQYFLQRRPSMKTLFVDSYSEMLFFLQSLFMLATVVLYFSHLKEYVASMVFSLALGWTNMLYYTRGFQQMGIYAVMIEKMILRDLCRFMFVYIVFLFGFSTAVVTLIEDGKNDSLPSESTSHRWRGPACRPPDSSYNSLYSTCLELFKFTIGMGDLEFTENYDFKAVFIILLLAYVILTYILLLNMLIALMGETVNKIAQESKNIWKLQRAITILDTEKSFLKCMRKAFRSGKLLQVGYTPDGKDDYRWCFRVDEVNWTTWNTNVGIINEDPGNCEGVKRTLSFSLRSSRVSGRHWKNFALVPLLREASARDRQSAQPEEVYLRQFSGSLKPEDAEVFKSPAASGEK

The first assay addresses T1, human capsaicin receptor (VR1) (Homo sapiens, UniProt Q8NER1).
T1 construct: transfected with the pBK-CMV expression construct encoding the full length human capsaicin receptor; expressed in transfected cells
The experiment in a line: Capsaicin receptor binding assay ([3H]RTX competition).
Settings: not given
The gist of the method:
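Membranes from HEK293 cells stably expressing full-length human VR1; competition against 60 pM [3H]RTX, 60 min at 37 °C in HEPES/sucrose buffer pH 7.4 with 0.25 mg/ml BSA. Non-specific binding defined with 1 μM unlabelled RTX; alpha1-acid glycoprotein added after termination on ice.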
In general, Ki refers to a measure of affinity in units of concentration, obtained from inhibition or displacement. Turning to `CCC1(c2ccc(NC(=O)c3ccc(-c4ncccc4F)cc3)cc2)CCC(=O)NC1=O` (stereo not drawn) [Compound 458, N-[4-(3-Ethyl-2,6-dioxo-piperidin-3-yl)-phenyl]-4-(3-fluoro-pyridin-2-yl)-benzamide], the Ki is under 1 µM.

The assay is the same for the next values; noted with them: read-out: Ki.
With `CC(C)(C)c1ccc(NC(=O)c2ccc(-c3ccc(O)cc3)nc2)cc1` [Compound 450, N-(4-tert-Butyl-phenyl)-6-(4-hydroxy-phenyl)-nicotinamide], the Ki was under 1 µM.
With `CC(C)(C)c1ccc(NC(=O)c2ccc(-c3ccccc3N(S(C)(=O)=O)S(C)(=O)=O)nc2)cc1` [Compound 451, N-(4-tert-Butyl-phenyl)-6-[2-(N,N-dimethanesulfonyl)amino-phenyl]-nicotinamide], the Ki was under 1 µM.
Still for that read-out and setting: under `Cc1cccc(-c2ccc(C(=O)Nc3ccc(C(C)(C)C)cc3)cn2)c1` [Compound 452, N-(4-tert-Butyl-phenyl)-6-m-tolyl-nicotinamide] stands under 1 µM.
On the same count and under the same terms, under `Cc1ccccc1-c1ccc(C(=O)Nc2ccc(C(C)(C)C)cc2)cn1` [Compound 453, N-(4-tert-Butyl-phenyl)-6-o-tolyl-nicotinamide] stands under 1 µM; under `CC(C)(C)c1ccc(NC(=O)c2ccc(-c3ccccc3)nc2)cc1` [Compound 454, N-(4-tert-Butyl-phenyl)-6-phenyl-nicotinamide], under 1 µM.
On to `CS(=O)(=O)N(c1cccnc1-c1ccc(C(=O)Nc2ccc(C(F)(F)F)cc2)cc1)S(C)(=O)=O` [Compound 456, N-(4-Trifluoromethyl-phenyl)-4-[3-(N,N-dimethanesulfonyl)amino-pyridin-2-yl]-benzamide], for which the Ki is under 1 µM.
On the same count and under the same terms, under `CS(=O)(=O)N(c1cccnc1-c1ccc(C(=O)Nc2ccc(C(F)(F)F)cn2)cc1)S(C)(=O)=O` [Compound 457, N-(5-Trifluoromethyl-pyridin-2-yl)-4-[3-(N,N-dimethanesulfonyl)amino-pyndin-2-yl]-benzamide] stands under 1 µM.
Same read-out and setting: under `Cc1ccccc1-c1ccc(C(=O)Nc2ccc(Oc3ccc(Cl)cc3)cc2)cn1` [Compound 459, N-[4-(4-Chloro-phenoxy)-phenyl]-6-o-tolyl-nicotinamide] stands under 1 µM; under `CC(C)c1cccc(-c2ccc(C(=O)Nc3ccc4c(c3)CCC4)cn2)c1` [Compound 462, N-Indan-5-yl-6-(3-isopropyl-phenyl)-nicotinainide], under 1 µM.
On the same count and under the same terms, under `COc1cccc(-c2ccc(C(=O)Nc3ccc4c(c3)CCC4)cn2)c1` [Compound 463, N-Indan-5-yl-6-(3-methoxy-phenyl)-nicotinamide] stands under 1 µM; under `O=C(Nc1ccc2c(c1)CCC2)c1ccc(-c2cccc(OC(F)(F)F)c2)nc1` [Compound 464, N-Indan-5-yl-6-(3-trifluoromethoxy-phenyl)-nicotinamide], under 1 µM.
Take `Cc1ccccc1-c1ccc(C(=O)Nc2ccc3c(c2)CCC3)cn1` [Compound 470, N-Indan-5-yl-6-o-tolyl-nicotinamide]: the Ki was under 1 µM.
Still for that read-out and setting: under `O=C(Nc1ccc2c(c1)CCC2)c1ccc(-c2ccccc2)nc1` [Compound 471, N-Indan-5-yl-6-phenyl-nicotinamide] stands under 1 µM.

The target of another assay is T2, human capsaicin receptor (Homo sapiens, UniProt Q8NER1).
T2 construct: transfected with the pBK-CMV expression construct encoding the full length human capsaicin receptor; expressed in transfected cells
T2 sequence (Q8NER1 whole entry): as above
Briefly: Calcium mobilization assay, determination of agonist activity. The format is cell-based. Conditions: capsaicin positive control, cells expressing human capsaicin receptor; read-out: approximate EC90 concentration. On the procedure:
This Example illustrates representative calcium mobilization assays for use in evaluating test compounds for agonist and antagonist activity.
Cells transfected with expression plasmids (as described in Example 4) and thereby expressing human capsaicin receptor are seeded and grown to 70-90% confluency in FALCON black-walled, clear-bottomed 96-well plates (#3904, BECTON-DICKINSON, Franklin Lakes, N.J.). […]
To measure the ability of a test compound to agonize or antagonize a calcium mobilization response in cells expressing capsaicin receptors to capsaicin or other vanilloid agonist, the EC50 of the agonist capsaicin is first determined. […] Capsaicin-induced calcium mobilization is monitored using either FLUOROSKAN ASCENT (Labsystems; Franklin, Mass.) or FLIPR (fluorometric imaging plate reader system; Molecular Devices, Sunnyvale, Calif.) instruments. […] In this equation, y is the maximum fluorescence signal, x is the concentration of the agonist or antagonist (in this case, capsaicin), a is the Emax, b corresponds to the EC50 value and c is the Hill coefficient. […]
The ability of a test compound to act as an agonist of the capsaicin receptor is determined by measuring the fluorescence response of cells expressing capsaicin receptors elicited by the compound as function of compound concentration.
On the technique in general: Calcium flux is commonly read through the fluorescence of an indicator in the cells.
As for `COc1cc(CNC(=O)CCCC/C=C/C(C)C)ccc1O` [capsaicin], the EC90 was about 0.1 µM.
